Test results: patent US20200384079A1, “Compositions of Fibroblast Growth Factor LIgands and Methods of Treating Patients Undergoing Ischemia-Reperfusion Therapy” (University of Cincinnati, priority 2017, published 2020)
Entries after “also recorded” stand apart in the source; their conditions may differ. Like-named read-outs stand apart in the source and are kept apart here.

Assays:
[1] = target: FGFR3c ectodomain (extracellular ligand binding domain of FGFR3c) (UniProt P22607); test: ITC; FGF1^ΔHBS injected into FGFR3c ectodomain in the cell
[2] = test system: in vivo rat model of myocardial infarction; test: In vivo rat ischemia-reperfusion model, infarct size (TTC); design: species or system Sprague Dawley rats; settings: for effect on infarct size / cardioprotection (in words): FGF given at reperfusion with heparin co-therapy; for reduction in infarct size compared to saline/vehicle control: given i.v. at reperfusion alone (FGF 10 μg/kg; heparin 12 U/kg/hr); for effect on infarct size (in words): given at reperfusion, no heparin co-therapy
Description: CVR-2016-799R1 signaling and the other two sets were to evaluate the pharmacokinetic properties of native FGF1 and modified FGF1 (FGF1^ΔHBS). The first set of experiments was for the ischemia/reperfusion study in which animals were divided into six groups as follows: (1) saline group: saline treatment given intravenously for 10 minutes immediately upon reperfusion, (2) heparin group: heparin, 60 U/kg intravenous (i.v.) bolus, given immediately at reperfusion+12 U/kg/hr i.v. infusion for 120 minutes of reperfusion, (3) FGF1 group: FGF1, 10 μg/kg i.v. infusion, given for 10 minutes immediately at reperfusion, (4) FGF1+heparin: heparin, 60 U/kg bolus, given immediately upon reperfusion followed by FGF1, 10 μg/kg i.v. infusion, given for 10 minutes and 12 U/kg/hr i.v. infusion given for 110 minutes of reperfusion, (5) modified FGF1 (FGF1^ΔHBS) group: FGF1^ΔHBS, 10 μg/kg i.v. infusion, given for 10 minutes, or (6) FGF1^ΔHBS+heparin: heparin, 60 U/kg bolus, given immediately at reperfusion followed by FGF1^ΔHBS, 10 μg/kg i.v. infusion, given for 10 minutes and 12 U/kg/hr i.v. infusion for 110 minutes of reperfusion. All rats were subjected to 30 minutes of regional ischemia and 120 minutes of reperfusion. Drugs were administered at the onset of reperfusion via the jugular vein (FIG. 2A). […] A total of ninety-six rats was completed for the I/R study. Sample size for each group ranged from 9-16 depending on the power analysis. A total of thirty-five rats were excluded from the study based on the lack of cyanosis of the heart or typical elevation of the ST segment in the electrocardiogram during ischemia, and death from malignant arrhythmia. For the biodistribution or FGF1 signaling study, rats were randomly divided into six groups as described above (FIG. 2B). Following drug treatment (immediately following 15 minutes of treatment or 105 minutes post-treatment at the point which mimics the length of time of reperfusion), solid organs and blood (see sections “Tissue collection for exogenous FGF1 biodistribution” and “Cardiac preparation to detect the activation of FGF1 downstream molecules”) were collected. A total of 33 rats were used for biodistribution and FGF1 signaling studies, and 3 rats were excluded due to anesthetic overdose. Also, a total of 8 plasma samples were excluded because of hemolysis. For elimination half-life of native FGF1 and FGF1^ΔHBS, 12 rats were randomly divided into two groups and treated intraperitoneally with either FGF1 form as described in the section “Pharmacokinetic evaluation of exogenous FGF1 or FGF1^ΔHBS ”.
The in vivo I/R model was established by ligating and loosening the left anterior CVR-2016-799R1 descending artery (LAD) previously described by our laboratory. In brief, rats were anesthetized with thiobutabarbital sodium salt hydrate, Inactin® hydrate (100 mg/kg, i.p., Sigma-Aldrich), and intubated and artificially ventilated via a rodent respirator (respiratory rate: 75 strokes/minute; tidal volume: 3 mL; Model 683, Harvard, USA). The heart was exposed through a left thoracotomy and pericardiotomy, and a 6-0 silk suture was placed around the left anterior descending (LAD) coronary artery. After equilibration for 15 minutes, hearts were subjected to 30 minutes of ischemia by ligating the LAD via a snare occluder and reperfusion occurred for 120 minute via loosening the snare occluder. The appearance of cyanosis of the heart and significant ST-segment elevation in the electrocardiogram were used to verify successful ligation.
At the end of the ischemia-reperfusion injury study, the LAD was re-occluded with the suture used previously for the establishment of ischemia. 5% Evans blue dye solution was given via the jugular vein to define the area-at-risk (AAR). Then, the heart was arrested in diastole with 1 mL of 15% potassium chloride, and the animal was euthanized with an anesthetic overdose followed by a bilateral pneumothorax for removal of the heart. […]

[3] = test system: in vivo rat model of myocardial infarction; settings: rat; for post-ischemic cardiac function (in words): given at reperfusion, no heparin co-therapy
[4] = Blood clotting time (tail nick); format: in vivo, rat; settings: for Clotting time: 15 mins post treatment, single agent
Description: In sets of experiments, blood clotting time was detected at baseline and 15 minutes after drug treatment. In brief, a nick 1-2 mm depth was made at 5 cm and 3 cm of the proximal tail for baseline and post-drug blood clotting time, respectively; the tail nick was blotted with 4×4 gauze every 15 seconds until bleeding totally stopped, and blood clotting time was recorded from the onset of bleeding until it stopped.
Heparan sulfate proteoglycans or heparin regulates the bioavailability of FGFs. In order to develop a “cardioprotective” FGF as a therapeutic against ischemic heart disease, it was necessary to elucidate the efficacy of these cardiac FGFs in the presence of heparin treatment. Therefore, native rhFGFs (FGF 1, 2, 4, or 5) or vehicle are infused intravenously (at dose indicated above) in conjunction with unfractionated (12 units/kg/hr, i.v.) or low molecular weight heparin (enoxaparin 1 mg·kg, s.c.) during the first 15 minutes of reperfusion (FIG. 12A), and post-ischemic recovery of cardiac function and the degree of myocardial infarction is assessed. […] Unfractionated or low molecular weight heparin is administered alone during early reperfusion to elucidate the cardioprotective effects of heparins against IR injury. Whether FGF administration alters heparin activity is evaluated. To assess this potential interaction, activated clotting time (ACT) is assessed in vehicle-treated or FGF-treated groups in the absence or presence of heparin co-administration. Baseline and 15 minute post-drug treatment ACT is determined. It has been established that a heparin response occurs within 1 minute after an intravenous dose in humans and that no more time is required to achieve a predicted ACT.

wildtype mouse hearts = test: Ex vivo model, low-flow ischemia and reperfusion; settings: treatment at reperfusion, mouse hearts
Text: FIGS. 12A-12B. […] Left bar is vehicle-treated and right bar is FGF2-treated wildtype mouse hearts.

trypsin = test: Susceptibility to proteolytic degradation by trypsin (fluorescence emission); format: in vitro ADME
Description: Ligand bioavailability (i.e., pharmacokinetic mechanism) can be a significant pharmacological limitation for therapeutic applicability. […] Susceptibility to protease action of FGF1^ΔTS was determined by monitoring changes in fluorescence emission during degradation by trypsin, FGF1^ΔTS (20-fold increase) and FGF2 (7-fold increase) were more resistant to proteolytic degradation than the native FGF1. It remained to be elucidated as to whether these pharmacokinetic mechanisms I.e., bioavailability and/or half-life) were enhanced in vivo as well. Therefore, detection of the bioavailability and half-life of native and thermally stable mutated ligands (FGF^ΔTS) are carried out as follows: […]

[5] = rat, i.v.
ERK1/2 = ERK1/2 activation (phosphorylation) in left ventricle, immunoblot; format: in vivo, rat; settings: immediately post-treatment, no FGF+heparin co-treatment
Description: Hearts from rats treated with saline, native FGF1 or FGF1^ΔHBS in the presence or absence of heparin were collected immediately after administration and at 120 minutes post-treatment for evaluation of downstream signaling. One-half of each snap-frozen heart was powdered and homogenized in protein extraction buffer as previously described by our laboratory. For FGFR1, 150 μg of total protein were loaded onto a 8% SDS-PAGE gel, for ERK1/2 activation, 20 μg of whole cell protein homogenate was loaded onto a 15% SDS-PAGE gel, and for PKCα and PKCδ, […] of whole cell protein homogenate was loaded onto a 10% SDS-PAGE gel and then transferred to nitrocellulose membrane. 0.1% Ponceau S in 5% acetic acid was used to examine the transfer efficiency and loading equality as described previously 43. Membranes were blocked with 5% dry milk and then incubated with primary antibody against phospho-FGFR1 (Y-654, 1:500, Cell Signaling), phospho-ERK1/2 (1:1000, Cell Signaling) or phospho-PKCα (1:500, Santa Cruz) or phospho-PKCδ (1:500, Santa Cruz) followed by incubation with HRP-conjugated secondary goat anti-rabbit antibody (1:3000, Santa Cruz Biotechnology). Membranes were stripped and reprobed with antibodies against total FGFR1 (1:500, Cell Signaling), total ERK (1:1000, BD Transduction Labs) or total PKCα (1:500, Santa Cruz) or PKCδ (1:500, Santa Cruz). Bound antibodies were visualized by ECL system. Activation is indicated as a ratio of phosphorylated protein/total protein. β-actin (1:1000, Cell Signaling) was also used as a loading control.
Construction of his-tagged native and heparin-binding modified rhFGFs as well as their expression and purification is performed as previously described using his-tagged expression vectors and nickel-nitrilotriacetic acid resin columns. […] His-tagged FGFs are detected in solid organs by ELISA (FIG. 14) both for FGF and histidine (data not shown), and immunoprecipitation (IP) followed by immunoblot and in plasma by ELISA as described previously. His-tags are widely used because they are small and rarely interfere with function, activity, or structure of target proteins. […] There is no observed difference in total ERK or FGFR1 expression between the treatment groups.

[6] = target: FGFR3c ectodomain (extracellular ligand binding domain of FGFR3c) (UniProt P22607); test: ITC; FGF1 injected into FGFR3c ectodomain in the cell
FGF receptors = settings: published data; cited from earlier work
[7] = rat, 30 min ischemia/120 min reperfusion, given i.v. at reperfusion alone (FGF 10 μg/kg; heparin 60 U/kg bolus + 12 U/kg/hr)

FGF1^ΔHBS (FGF1 carrying the K127D/K128Q/K133V triple mutation in its HS-binding site) (from UniProt P05230 1-155) (ligand)
Kd [1]: 432 nM

FGF2: native recombinant human fibroblast growth factor 2
infarct size (% infarct, percentage of area-at-risk) ([2]; as E6 but FGF 10 μg/kg i.v. in the presence of heparin co-administration): 46% | infarct size (% infarct, percentage of area-at-risk) [2, 7]: 26% | effect on infarct size / cardioprotection (in words) ([2]; rat): significantly inhibited FGF2's reduction in infarct size | effect on infarct size / cardioprotection (in words) ([2]; rat, listed as rhFGF2): significantly inhibited rhFGF2-induced cardioprotection against MI | reduction in infarct size compared to saline/vehicle control ([2]; rat): 57% | reduction in infarct size compared to saline/vehicle control ([2]; rat, listed as RhFGF2): 70% | recovery of left ventricular (LV) developed pressure, % of baseline ([3]; FGF2 at reperfusion): 68% | post-ischemic cardiac function (in words) [3]: protects the heart from cardiac dysfunction; also recorded: improved relaxation compared to saline treatment | Clotting time [4]: 15 mins post rhFGF2 treatment: 192 +/− 120 sec (n = 5) | cardioprotection in ex vivo model (in words) (wildtype mouse hearts): protects the heart from post-ischemic cardiac dysfunction and myocardial infarction | increase in proteolytic resistance compared to native FGF1 (trypsin): 7 fold | tissue and plasma FGF distribution (in words) ([5]; FGF with heparin co-administration): no longer targeted to the heart | tissue and plasma FGF distribution (in words) ([5]; no FGF+heparin co-treatment): increased biodistribution heart (left ventricle) | tissue and plasma FGF distribution (in words) ([5]; no FGF+heparin co-treatment, listed as native FGF2): significantly targeted to the heart

Heparin sodium [reference compound]
infarct size (% infarct, percentage of area-at-risk) [2, 7]: 46% | effect on infarct size (in words) ([2]; rat): lowered infarct size but not to the degree of FGF2 treatment; also recorded: significantly reduced infarct size compared to saline | effect on infarct size (in words) ([2]; rat, listed as Heparin): reduced infarct size somewhat, but not to the degree of FGF2 treatment | reduction in infarct size compared to saline/vehicle control ([2]; rat): 31% | post-ischemic cardiac function (in words) [3]: no significant difference in post-ischemic contractility between the saline and heparin group | Clotting time [4]: 15 mins post-heparin treatment: 737 +/− 127 sec (n = 4) | blood clotting time post-treatment (in words) ([4]; baseline vs 15 minutes after drug treatment): significantly longer post-treatment than at baseline | ERK1/2 activation (phosphorylation) in left ventricle (in words) (ERK1/2): not different than saline treatment | tissue and plasma FGF distribution (in words) ([5]; no FGF+heparin co-treatment): no difference in saline or heparin treatment with regard to FGF1 levels

bisindolylmaleimide [GF109203X, reference compound]
effect of PKC inhibitor on FGF2-induced cardioprotection (infarct size) ([2]; rat, 1 mg/kg i.v., with FGF2, 1 mg/kg): abrogates the FGF2-induced cardioprotective effects of reduced myocardial infarct size; also recorded: abolished FGF2-induced cardioprotection

native FGF1 (recombinant human fibroblast growth factor 1) (from UniProt P05230 16-155) (ligand)
Kd [6]: 704 nM

B1: FGF1^ΔTS: thermally stable mutant of FGF1 containing Q55P, S62I, and H108G FGF1-stabilizing mutations (protein, UniProt P05230 16-155, looked up, variant Q55P S62I H108G)
Fibroblast growth factor 1: FNLPPGNYKKPKLLYCSNGGHFLRILPDGTVDGTRDRSDPHIQLQLIAESVGEVYIKSTETGQYLAMDTDGLLYGSQTPNEECLFLERLEENGYNTYISKKHAEKNWFVGLKKNGSCKRGPRTHYGQKAILFLPLPVSSD
effect on infarct size (in words) ([2]; rat): marked reduction in infarct size compared to native FGF1 at the same dose; also recorded: more efficacious in reducing infarct size compared to the same dose of native FGF1 | increase in proteolytic resistance compared to native FGF1 (trypsin): 20 fold | activation of FGF receptors (ERK activation, cell proliferation) (in words) (FGF receptors): greater than the native FGF1
